Data published in US20180153995A1, “USE OF ANTIMICROBIAL POLYMERS FOR RE-SENSITIZATION OF MICROORGANISMS UPON EMERGENCE OF RESISTANCE TO ANTI-MICROBIAL AGENTS” (Technion Research & Development Foundation Limited, priority 2008, published 2018).
Read-outs that look alike come from different tables or passages of the source.

Key:
MRSA 15852 = type: cell-based, Staphylococcus aureus; settings: S. aureus 15852
Summary of the method: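 Checkerboard combination testing against MRSA 15852; FIC index = A/MICA + B/MICB, with A and B the MICs of each agent in combination and MICA, MICB the MICs alone. Index <0.5 read as clear re-sensitizing, 0.5–4 as marginal or null, >4 as antagonism.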

S. aureus 43300 = assay: Antibiotic MIC by microdilution with or without sub-MIC polymer; type: cell-based, Staphylococcus aureus
Experimental: (§1) MICs were determined by microdilution susceptibility testing in 96-well plates (by Nunc) using inocula of 10^5 bacteria per ml. Cell populations were evaluated by optical density measurements at 620 nm and were calibrated against a set of standards. Hundred (100) μl of a bacterial suspension were added to 100 μl of culture medium (control) or to 100 μl of culture medium containing various polymer concentrations in 2-fold serial dilutions. Inhibition of proliferation was determined by optical density measurements at 620 nm after an incubation period of 24 hours at 37° C.
Table 8 below presents the MIC values of antibiotics in presence or absence of C12(5-ene)KKNC12KNH2 (SEQ ID NO: 2) at sub-MIC levels of the polymer, as measured for the S. aureus strains 43300 (ATCC), 15819 (clinical isolate), 15877 (clinical isolate) and 15852 (clinical isolate). MICs were determined by microdilution susceptibility testing in 96-well plates (Nunc) using inocula of 10^5 bacteria per ml. One hundred (100) μl of a bacterial suspension were added to 100 μl of culture medium (control) or to 100 μl of culture medium containing various antibiotic and C12(5-ene)KKNC12KNH2 (SEQ ID NO: 2) concentrations in 2-fold serial dilutions. Inhibition of proliferation was determined by optical density measurements at 620 nm after an incubation period of 24 hours at 37° C.
(§2) 100 μl of a bacterial suspension were added to 100 μl of culture medium (control) or to 100 μl of culture medium containing various antibiotic and C14(9-ene)KKNC12KNH2 (SEQ ID NO: 5) concentrations in 2-fold serial dilutions. Inhibition of proliferation was determined by optical density measurements at 620 nm after an incubation period of 24 hours at 37° C.

S. aureus 17314 = assay: as above; type: cell-based, Staphylococcus aureus
E. coli 14182 = assay: as above; type: cell-based, Escherichia coli
P. aeruginosa 8732 = assay: as above; type: cell-based, Pseudomonas aeruginosa
Experimental: as §1
Inhibition of proliferation was determined by optical density measurements at 620 nm after an incubation period of 24 hours at 37° C.

P. mirabilis 1285 [1] = type: cell-based, Proteus mirabilis; settings: no polymer (None), Table 12
Experimental: as §1, §2

E. coli AG100 = assay: Antibiotic MIC with or without sub-MIC polymer (Tables 20, 21); type: cell-based, Escherichia coli
E. coli AG100/ks = assay: as above; type: cell-based, Escherichia coli
P. mirabilis 1285 [2] = type: cell-based, Proteus mirabilis
[3] = +½ MIC (3.12 μM) C12(5-ene)KKNC12KNH2

Question: `CCN1CCN(C(=O)N[C@@H](C(=O)N[C@@H]2C(=O)N3[C@@H]2SC(C)(C)[C@@H]3C(=O)O)c2ccccc2)C(=O)C1=O` [Piperacillin, piperacillin] was tested. Which “Antibiotic MIC” value (MRSA 15852; +¼ MIC (1.6 μM) C12(5-ene)KKNC12KNH2) did it give?
Answer: 128 µg/mL

Question: And the “Antibiotic MIC” value (MRSA 15852; +¼ MIC (1.6 μM) C12KKNC12KNH2)?
Answer: 256 µg/mL

Question: And the “Antibiotic MIC” value (MRSA 15852; [3])?
Answer: 128 µg/mL

Question: What about the “Antibiotic MIC” value (MRSA 15852; +½ MIC (3.12 μM) C12KKNC12KNH2) of the same molecule?
Answer: 256 µg/mL

Question: And the “Antibiotic MIC” value (MRSA 15852; +⅓ MIC (2.1 μM) C12(5-ene)KKNC12KNH2)?
Answer: 128 µg/mL

Question: And the “Antibiotic MIC” value (MRSA 15852; +⅓ MIC (2.1 μM) C12KKNC12KNH2)?
Answer: 256 µg/mL

Question: And the “Antibiotic MIC” value (MRSA 15852; no polymer (None), Table 8)?
Answer: 128 µg/mL

Question: What about the “Antibiotic MIC” value (MRSA 15852; no polymer (None), Table 11) of the same molecule?
Answer: 256 µg/mL

Question: And the “Antibiotic MIC” value (S. aureus 43300; +¼ MIC (1.6 μM) C14(9-ene)KKNC12KNH2)?
Answer: 16 µg/mL

Question: What about the “Antibiotic MIC” value (S. aureus 43300; [3]) of the same molecule?
Answer: 1 µg/mL

Question: And the “Antibiotic MIC” value (S. aureus 43300; +½ MIC (3.12 μM) C14(9-ene)KKNC12KNH2)?
Answer: 16 µg/mL

Question: And the “Antibiotic MIC” value (S. aureus 43300; +⅓ MIC (2.1 μM) C14(9-ene)KKNC12KNH2)?
Answer: 16 µg/mL

Question: What about the “Antibiotic MIC” value (S. aureus 43300; no polymer (None), Table 8) of the same molecule?
Answer: 16 µg/mL

Question: What about the “Antibiotic MIC” value (S. aureus 43300; no polymer (None), Table 9) of the same molecule?
Answer: 16 µg/mL

Question: And the “Antibiotic MIC” value (S. aureus 43300; no polymer (None), Table 10)?
Answer: 16 µg/mL

Question: And the “Antibiotic MIC” value (S. aureus 43300; no polymer (None), Table 11)?
Answer: 32 µg/mL

Question: What about the “Antibiotic MIC” value (S. aureus 43300; no polymer (None), Table 12) of the same molecule?
Answer: 32 µg/mL

Question: And the “Antibiotic MIC” value (S. aureus 17314)?
Answer: 128 µg/mL

Question: And the “Antibiotic MIC” value (S. aureus 17314; S. aureus 17314, +¼ MIC (1.6 μM) C12K(KNC12K)2NH2)?
Answer: 128 µg/mL

Question: What about the “Antibiotic MIC” value (S. aureus 17314; S. aureus 17314, +¼ MIC (1.6 μM) C14(9-ene)KKNC12KNH2) of the same molecule?
Answer: 32 µg/mL

Question: And the “Antibiotic MIC” value (S. aureus 17314; S. aureus 17314, +¼ MIC (1.6 μM) C16(9-ene)KKNC12KNH2)?
Answer: 4 µg/mL

Question: What about the “Antibiotic MIC” value (S. aureus 17314; S. aureus 17314, +½ MIC (3.12 μM) C12K(KNC12K)2NH2) of the same molecule?
Answer: 64 µg/mL

Question: What about the “Antibiotic MIC” value (S. aureus 17314; S. aureus 17314, +½ MIC (3.12 μM) C12KKNC12KNH2) of the same molecule?
Answer: 64 µg/mL

Question: And the “Antibiotic MIC” value (S. aureus 17314; S. aureus 17314, +½ MIC (3.12 μM) C14(9-ene)KKNC12KNH2)?
Answer: 32 µg/mL

Question: What about the “Antibiotic MIC” value (S. aureus 17314; S. aureus 17314, +½ MIC (3.12 μM) C16(9-ene)KKNC12KNH2) of the same molecule?
Answer: 1 µg/mL

Question: What about the “Antibiotic MIC” value (S. aureus 17314; S. aureus 17314, +⅓ MIC (2.1 μM) C12K(KNC12K)2NH2) of the same molecule?
Answer: 128 µg/mL

Question: And the “Antibiotic MIC” value (S. aureus 17314; S. aureus 17314, +⅓ MIC (2.1 μM) C14(9-ene)KKNC12KNH2)?
Answer: 32 µg/mL

Question: What about the “Antibiotic MIC” value (S. aureus 17314; S. aureus 17314, +⅓ MIC (2.1 μM) C16(9-ene)KKNC12KNH2) of the same molecule?
Answer: 2 µg/mL

Question: And the “Antibiotic MIC” value (S. aureus 17314; S. aureus 17314, no polymer (None), Table 9)?
Answer: 32 µg/mL

Question: What about the “Antibiotic MIC” value (S. aureus 17314; S. aureus 17314, no polymer (None), Table 10) of the same molecule?
Answer: 8 µg/mL

Question: What about the “Antibiotic MIC” value (S. aureus 17314; S. aureus 17314, no polymer (None), Table 11) of the same molecule?
Answer: 128 µg/mL

Question: What about the “Antibiotic MIC” value (S. aureus 17314; S. aureus 17314, no polymer (None), Table 12) of the same molecule?
Answer: 128 µg/mL

Question: What about the “Antibiotic MIC” value (E. coli 14182; +¼ MIC C12K(NC8K)5NH2) of the same molecule?
Answer: >512 µg/mL

Question: And the “Antibiotic MIC” value (E. coli 14182; +½ MIC C12K(NC8K)5NH2)?
Answer: 512 µg/mL

Question: What about the “Antibiotic MIC” value (E. coli 14182; +⅓ MIC C12K(NC8K)5NH2) of the same molecule?
Answer: >512 µg/mL

Question: And the “Antibiotic MIC, None” value (E. coli 14182; antibiotic alone (Table 15))?
Answer: >512 µg/mL

Question: What about the “Antibiotic MIC” value (E. coli 14182; no polymer (None), Table 14) of the same molecule?
Answer: >512 µg/mL

Question: And the “Antibiotic MIC in presence of C12K(NC8K)7NH2 (SEQ ID NO: 4), +¼ MIC” value (“Antibiotic MIC … (SEQ ID NO: 4), +¼ MIC” below) (E. coli 14182; polymer at ¼ of its MIC)?
Answer: >512 µg/mL

Question: What about the “Antibiotic MIC in presence of C12K(NC8K)7NH2 (SEQ ID NO: 4), +½ MIC” value (shortened to “Antibiotic MIC … (SEQ ID NO: 4), +½ MIC”) (E. coli 14182; polymer at ½ of its MIC) of the same molecule?
Answer: 64 µg/mL

Question: And the “Antibiotic MIC in presence of C12K(NC8K)7NH2 (SEQ ID NO: 4), +⅓ MIC” value (“Antibiotic MIC … (SEQ ID NO: 4), +⅓ MIC” for short) (E. coli 14182; polymer at ⅓ of its MIC)?
Answer: >512 µg/mL

Question: And the “Antibiotic MIC” value (P. aeruginosa 8732)?
Answer: 256 µg/mL

Question: What about the “Antibiotic MIC” value (P. aeruginosa 8732; P. aeruginosa 8732, +½ MIC (3.12 μM) C16(9-ene)KKNC12KNH2) of the same molecule?
Answer: 256 µg/mL

Question: And the “Antibiotic MIC” value (P. aeruginosa 8732; P. aeruginosa 8732, +⅓ MIC (2.1 μM) C16(9-ene)KKNC12KNH2)?
Answer: 256 µg/mL

Question: And the “Antibiotic MIC” value (P. aeruginosa 8732; P. aeruginosa 8732, no polymer (None), Table 10)?
Answer: 256 µg/mL

Question: What about the “Antibiotic MIC” value (P. mirabilis 1285 [1]) of the same molecule?
Answer: 512 µg/mL

Question: What about the “Antibiotic MIC, None” value (E. coli AG100; antibiotic alone (Table 20)) of the same molecule?
Answer: 2 µg/mL

Question: What about the “Antibiotic MIC, None” value (E. coli AG100; antibiotic alone (Table 21)) of the same molecule?
Answer: 2 µg/mL

Question: What about the “Antibiotic MIC in presence of C12K(NC8K)5NH2 (SEQ ID NO: 3), +¼ MIC” value (E. coli AG100; polymer at ¼ of its MIC) of the same molecule?
Answer: 1 to 2 µg/mL

Question: And the “Antibiotic MIC … (SEQ ID NO: 4), +¼ MIC” value (E. coli AG100; polymer at ¼ of its MIC)?
Answer: 2 µg/mL

Question: And the “Antibiotic MIC in presence of C12K(NC8K)5NH2 (SEQ ID NO: 3), +½ MIC” value (E. coli AG100; polymer at ½ of its MIC)?
Answer: 0.5 µg/mL

Question: And the “Antibiotic MIC … (SEQ ID NO: 4), +½ MIC” value (E. coli AG100; polymer at ½ of its MIC)?
Answer: 0.5 µg/mL

Question: And the “Antibiotic MIC in presence of C12K(NC8K)5NH2 (SEQ ID NO: 3), +⅓ MIC” value (E. coli AG100; polymer at ⅓ of its MIC)?
Answer: 1 µg/mL

Question: And the “Antibiotic MIC … (SEQ ID NO: 4), +⅓ MIC” value (E. coli AG100; polymer at ⅓ of its MIC)?
Answer: 1 µg/mL

Question: What about the “Antibiotic MIC, None” value (E. coli AG100/ks; antibiotic alone (Table 20)) of the same molecule?
Answer: >512 µg/mL

Question: What about the “Antibiotic MIC, None” value (E. coli AG100/ks; antibiotic alone (Table 21)) of the same molecule?
Answer: >512 µg/mL

Question: And the “Antibiotic MIC in presence of C12K(NC8K)5NH2 (SEQ ID NO: 3), +¼ MIC” value (E. coli AG100/ks; polymer at ¼ of its MIC)?
Answer: >512 µg/mL

Question: And the “Antibiotic MIC … (SEQ ID NO: 4), +¼ MIC” value (E. coli AG100/ks; polymer at ¼ of its MIC)?
Answer: >512 µg/mL

Question: And the “Antibiotic MIC in presence of C12K(NC8K)5NH2 (SEQ ID NO: 3), +½ MIC” value (E. coli AG100/ks; polymer at ½ of its MIC)?
Answer: >512-512 μg/ml

Question: What about the “Antibiotic MIC … (SEQ ID NO: 4), +½ MIC” value (E. coli AG100/ks; polymer at ½ of its MIC) of the same molecule?
Answer: >512-512 μg/ml

Question: And the “Antibiotic MIC in presence of C12K(NC8K)5NH2 (SEQ ID NO: 3), +⅓ MIC” value (E. coli AG100/ks; polymer at ⅓ of its MIC)?
Answer: >512 µg/mL

Question: And the “Antibiotic MIC … (SEQ ID NO: 4), +⅓ MIC” value (E. coli AG100/ks; polymer at ⅓ of its MIC)?
Answer: >512 µg/mL

Question: And the “Antibiotic MIC” value (P. mirabilis 1285 [2]; +¼ MIC (1.6 μM) C12K(KNC12K)2NH2)?
Answer: 512 µg/mL

Question: What about the “Antibiotic MIC” value (P. mirabilis 1285 [2]; +½ MIC (3.12 μM) C12K(KNC12K)2NH2) of the same molecule?
Answer: 512 µg/mL

Question: And the “Antibiotic MIC” value (P. mirabilis 1285 [2]; +⅓ MIC (2.1 μM) C12K(KNC12K)2NH2)?
Answer: 512 µg/mL
